Data reported in patent US20250352518A1, “A BENZIMIDAZOLE COMPOUND WITH ANTIHELMINTHIC ACTIVITY FOR USE IN REVERSING, ARRESTING OR SLOWING DOWN CELLULAR AGEING IN A VERTEBRATE SUBJECT” (RAVAN BIO LIMITED, priority 2022, published 2025).

Experiments:
[1] = tested on: post-confluent NHEK cells; assay: Growth of re-cultured post-confluent (cell-cell contact growth arrested) NHEK's; assay type: cell-based, human
Interleukin 6 (IL-6) = assay: IL-6 secretion by NHEK's (Human IL-6 SimpleStep ELISA); assay type: cell-based; conditions: post-confluent NHEKs, 4 days post-confluence, FIG. 9b; Tadalafil at 500 nM
Protocol: Aliquots of 60,000 NHEK cells were seeded into separate T25 flasks in complete KSFM and incubated at 5% CO2, 37° C. for 3 days until they reached 20% confluence. Fenbendazole and Tadalafil were then added to each of these as either single agents, or in combination, and the cells incubated for a further 3 days at 5% CO2, 37° C. until the cells reached >50% confluence. A sample of medium was then taken for analysis of IL-6 levels using a Human IL-6 SimpleStep ELISA Kit (AbCam Cat No ab178013) according to the manufacturer's instructions (FIG. 9a). Both medium and drugs were replaced, the cells incubated for a further 3 days until confluent, medium and drugs were changed and the incubation continued for 4 days post-confluence when final medium samples were taken for analysis of IL6 levels (FIG. 9b). Each data point was repeated in triplicate and OD 490 nm readings were determined with a Dynex MRX Plate reader.

[2] = tested on: post-confluent NHEK cells; assay: Growth of re-cultured post-confluent (cell-cell contact growth arrested) NHEK's; assay type: cell-based, human; conditions: for continued growth of post-confluent NHEK's (phase contrast): passage 4, 24 hours with compound, 10 μM Y27632, 500-1250 nM Tadalafil, 50-200 nM Fenbendazole; for concentration causing optimal cell growth: post-confluent NHEK
Source text: Neonatal human epidermal foreskin keratinocytes (NHEKs) were used to test the ability of compounds to reverse, arrest or slow down cellular ageing. These cells typically undergo approximately 35 cell divisions before the Hayflick limit is reached but they can be induced to undergo premature senescence and, what has been understood to be, irreversible growth arrest earlier than this by induction of cell-cell contact growth inhibition when cultured at high cell density/to confluence (Poumay & Pittelkow 1995 J Inv Dermatol 104, p 271-276). The inventors were thus inspired to culture post-confluent cells and assess the effect of test compounds on the growth, telomere loss and secretion of inflammatory factors by such cells. An experimental schematic is provided as FIG. 1. 1.1 Culture of Early Passage NHEK's in the Presence and Absence of y27632 Pooled donor neonatal NHEK's (Cat No C-12005, Lot No 456Z001.1, PromoCell GmBH), serum-free PromoCell Keratinocyte Growth Medium 2 (KSFM, Cat No C20011. Lot No 472M197), CaCl2) (Lot No 471055) and Supplements (Lot No 472M013) were all obtained from PromoCell GmBH. NHEK's were thawed directly into a single T75 in 20 mls of complete KSFM (CaCl2 & Supplements), incubated over night at 37° C., 5% CO2 and the medium changed the following day. After 3 days the cells were 80% confluent and were passaged (Ist) using 0.05% Trypsin+EDTA (Gibco) into ×2 T75 flasks at a split ratio of 1:4. After overnight incubation at 37° C., 5% CO2, the cultures were at 30% confluence and 10 μM Y27632 (Cat No 688000, Lot No 2884132, Merck) was added to one of the flasks. […] Fresh T75 flasks were seeded with 5.0×10^5 cells from each in their respective medium. […] Fresh T75 flasks were seeded, as described previously, and also 1.2×10^4 NHEK cells/well were seeded into 24 well plates, incubated overnight to allow cell attachment, and the following subsequently added to separate wells: • A. NHEK in complete KSFM • B. NHEK+Y27632 in complete KSFM • C. Y27632 treated NHEK transferred to complete KSFM (Y27632 Removed) • D. NHEK transferred to complete KSFM+500 nM Tadalafil • E. NHEK transferred to complete KSFM+750 nM Tadalafil • F. NHEK transferred to complete KSFM+1000 nM Tadalafil • G. NHEK transferred to complete KSFM+1250 nM Tadalafil • H. NHEK transferred to complete KSFM+50 nM Fenbendazole • I. NHEK transferred to complete KSFM+100 nM Fenbendazole • J. NHEK transferred to complete KSFM+150 nM Fenbendazole • K. NHEK transferred to complete KSFM+200 nM Fenbendazole All drugs were added 24 hours after seeding. […] FIG. 2B is an example of the appearance of post-confluent cells.
Post-confluent NHEK's (FIG. 2B) were subsequently passaged (4th) into a fresh 24 well plate using a split ratio of 1 in 4 in 2 mls of fresh complete KSFM. These were left overnight to attach and the same compounds added (as shown in A-K of 1.1) followed by incubation for a further 24 hours and subsequently photographed.

14th passage NHEK cells = assay: Toxic effects on late-passage (passage 14) NHEK's; assay type: cell-based, human; conditions: 6 days, 10 μM Y27632 or 500 nM Tadalafil+100 nM Fenbendazole
Source text: NHEK's were maintained in complete KSFM for 55 days with serial passage routinely carried out at 80% confluence in T75 flasks, as previously described in 1.1. These cells were not grown to be post-confluent and the cells were therefore not used to assess the ability of test compounds to reverse, arrest or slow down cellular ageing. Instead, the cells were used to assess whether or not Y27632, fenbendazole or tadalafil has any toxic effects. After the 55 days, a total of 50,000 cells/well of 14th passage NHEK cells were seeded into 6 well plates and, after 24 hours, Y27632, and a mixture of Tadalafil and Fenbendazole were added.

[3] = tested on: neonatal human epidermal foreskin keratinocytes (NHEKs); assay: Culture of early passage NHEK's in the presence and absence of Y27632 (live cell counts); assay type: cell-based
Source text: Neonatal human epidermal foreskin keratinocytes (NHEKs) were used to test the ability of compounds to reverse, arrest or slow down cellular ageing. These cells typically undergo approximately 35 cell divisions before the Hayflick limit is reached but they can be induced to undergo premature senescence and, what has been understood to be, irreversible growth arrest earlier than this by induction of cell-cell contact growth inhibition when cultured at high cell density/to confluence (Poumay & Pittelkow 1995 J Inv Dermatol 104, p 271-276). The inventors were thus inspired to culture post-confluent cells and assess the effect of test compounds on the growth, telomere loss and secretion of inflammatory factors by such cells. […] Lot No 472M197), CaCl2) (Lot No 471055) and Supplements (Lot No 472M013) were all obtained from PromoCell GmBH. NHEK's were thawed directly into a single T75 in 20 mls of complete KSFM (CaCl2 & Supplements), incubated over night at 37° C., 5% CO2 and the medium changed the following day. […] After a further 48 hours both flasks were 60% confluent and phase contrast images were recorded (Zeiss […]). […] The inventors assessed that these cells had stopped growing due to cell-cell contact inhibition and had become post-confluent as defined herein. […]

SMILES	number of viable cells (Via-1 Assay) following withdrawal of drug ([1]; treatment P3-P5 only, withdrawn following passage 6, 5 days, FIG. 5)	number of viable cells (Via-1 Assay) ([1]; treatment continued for passages P3-P6, 5 days after passage 6, FIG. 5)	secretion of IL-6 compared to DMSO control (Interleukin 6 (IL-6))	continued growth of post-confluent NHEK's (phase contrast) ([2]; FIG. 3)	concentration causing optimal cell growth ([2]; cultured for a further 24 hrs, FIG. 4)	concentration causing optimal cell growth ([2]; passage 4, 24 hours, FIG. 3)	proliferation and cell death of late passage cells (14th passage NHEK cells)	total live cell counts ([3]; KSFM+10 μM Y27632, 2nd passage at 80% confluence)	cell counts ([3]; KSFM+10 μM Y27632, 3rd passage, 72 hours after seeding 5.0×10^5 cells)
CN1CC(=O)N2[C@H](c3ccc4c(c3)OCO4)c3[nH]c4ccccc4c3C[C@@H]2C1=O [Tadalafil, pyrazino[1′,2′: 1,6]pyrido[3,4-b]indole-1,4-dione, 6-(1,3-benzodioxol-5-yl)-2,3,6,7,12,12a-hexahydro-2-methyl-, (6R,12aR)]	1.3×10^4 cells/ml	4.3×10^4 cells/ml	least effective	all exhibited cell growth	about 1000 nM	750 to 1000 nM			
C[C@@H](N)[C@H]1CC[C@H](C(=O)Nc2ccncc2)CC1 [Y27632]				no, or minimal cell rejuvenation			no proliferation and extensive cell death	5.2×10^5 cells/ml	5.3×10^5 cells/ml
